The source of these data is US20230150986A1, “ANTAGONISTS OF THE MUSCARINIC ACETYLCHOLINE RECEPTOR M4” (Vanderbilt University, priority 2019, published 2023).

One series addresses T1, cytochrome P450 1A2 (Homo sapiens, UniProt P05177).
T1 construct: human liver microsomes (HLM; 0.1 mg/mL); from tissue; host or cells: human liver microsomes
T1 sequence (P05177 1-516): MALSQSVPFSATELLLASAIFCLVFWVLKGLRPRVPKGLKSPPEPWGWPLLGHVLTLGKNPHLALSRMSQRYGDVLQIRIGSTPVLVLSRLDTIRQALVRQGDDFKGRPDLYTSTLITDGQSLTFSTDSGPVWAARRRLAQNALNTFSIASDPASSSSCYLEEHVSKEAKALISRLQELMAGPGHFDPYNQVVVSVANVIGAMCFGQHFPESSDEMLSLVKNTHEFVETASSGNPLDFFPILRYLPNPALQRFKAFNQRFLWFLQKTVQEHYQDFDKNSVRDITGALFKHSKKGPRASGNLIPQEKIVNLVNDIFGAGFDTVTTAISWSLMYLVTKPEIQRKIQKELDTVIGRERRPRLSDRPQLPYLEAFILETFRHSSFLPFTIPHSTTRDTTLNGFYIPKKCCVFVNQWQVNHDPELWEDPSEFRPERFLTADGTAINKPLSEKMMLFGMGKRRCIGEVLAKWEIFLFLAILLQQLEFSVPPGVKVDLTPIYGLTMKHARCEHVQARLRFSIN
In words: Cytochrome P450 cocktail inhibition assay, 1A2 (phenacetin). The class given is in vitro ADME. The conditions noted are these: human liver microsomes 0.1 mg/mL; read-out: CYP Inhibition (1A2). Here is the method: (§1) Solutions of substrates for cytochrome P450 enzymes (1A2: Phenacetin, 10 μM; 2C9: Diclofenac, 5 μM; 2D6: Dextromethorphan, 5 μM; 3A4: Midazolam, 2 μM; as a mixture), test compound (VU6028418; multiple concentrations), and the positive control for pan-P450 inhibition (miconazole; multiple concentrations) were prepared. A reaction mixture of assay buffer (100 mM Kpi at pH 7.4), human liver microsomes (HLM; 0.1 mg/mL), and the substrate mixture were aliquoted into a 96-deepwell plate. The test compound and control were then added to the plate such that the final concentration of test compound ranged from 0.1-30 μM (two replicates per concentration). The assay plate was vortexed (briefly) and pre-incubated at 37° C. in an orbital shaker for 15 minutes. The reaction was initiated by addition of NADPH (1 mM, final concentration) and continued for 8 min before it was quenched by acetonitrile (2× volume) containing an LCMS internal standard (carbamazepine, 50 nM). The plate was then centrifuged (4000 rcf, 4° C., 10 min), and the resulting supernatant was diluted with water (1× volume) for LC-MS/MS. Assay samples were analyzed via electrospray ionization on an AB Sciex API-4000 (Foster City, Calif.) triple-quadrupole mass spectrometer coupled to Agilent Technologies 1290 Infinity series pumps (Santa Clara, Calif.), and a Leap Technologies CTC PAL auto -sampler (Carrboro, NC). Analytes were separated by gradient elution on a Phenomenex Kinetex (C18 2.1×50 mm 5 μm) column (Torrance, Calif.) thermostated at 40° C. The HPLC mobile phase A was 0.1% formic acid in water (pH unadjusted), and the mobile phase B was 0.1% formic acid in acetonitrile (pH unadjusted). […] The total run time was 2.5 min and the HPLC flow rate was 0.5 mL/min. The source temperature was set at 500° C. and mass spectral analyses were performed using multiple reaction monitoring (MRM) with mass transitions specific to each substrate's metabolite utilizing a Turbo-Ionspray® source in positive ionization mode (5.0 kV spray voltage). The test compound and control IC50 values for each enzyme were obtained by quantitating the inhibition of metabolite formation for each substrate. A 0 μM test compound (or control) conditions represented 100% enzymatic activity, and the effect of increasing test compound concentrations on enzymatic activity was then calculated from the % of control activity. Inhibition curves were fitted using XLfit 5.2.2 (four-parameter logistic model, equation 201) in order to calculate the concentration that produced half-maximal inhibition (IC50) of each enzyme.

In a further series the target is T2, cytochrome P450 2C9 (Homo sapiens, UniProt P11712).
T2 construct: human liver microsomes (HLM; 0.1 mg/mL); from tissue; host or cells: human liver microsomes
T2 sequence (P11712 whole entry): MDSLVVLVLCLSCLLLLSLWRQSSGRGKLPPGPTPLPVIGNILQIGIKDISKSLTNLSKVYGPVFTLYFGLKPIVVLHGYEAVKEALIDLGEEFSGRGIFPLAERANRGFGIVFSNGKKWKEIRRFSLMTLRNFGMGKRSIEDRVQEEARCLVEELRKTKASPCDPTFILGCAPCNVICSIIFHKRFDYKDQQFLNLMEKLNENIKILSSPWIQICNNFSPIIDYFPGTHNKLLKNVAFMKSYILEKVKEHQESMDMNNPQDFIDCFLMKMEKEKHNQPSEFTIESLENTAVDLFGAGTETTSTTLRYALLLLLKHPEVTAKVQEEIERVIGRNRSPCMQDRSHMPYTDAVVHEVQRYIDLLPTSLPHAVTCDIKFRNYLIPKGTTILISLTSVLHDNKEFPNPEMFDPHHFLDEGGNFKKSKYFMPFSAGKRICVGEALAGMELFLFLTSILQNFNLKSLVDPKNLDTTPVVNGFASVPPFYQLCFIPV
The series is described as follows: Cytochrome P450 cocktail inhibition assay, 2C9 (diclofenac). It is filed as in vitro ADME. The conditions noted are these: human liver microsomes 0.1 mg/mL; read-out: CYP Inhibition (2C9). Here is the method:
as §1

The next series has as its target T3, cytochrome P450 2D6 (Homo sapiens, UniProt P10635).
T3 construct: human liver microsomes (HLM; 0.1 mg/mL); from tissue; host or cells: human liver microsomes
In words: Cytochrome P450 cocktail inhibition assay, 2D6 (dextromethorphan). The class given is in vitro ADME. The conditions noted are these: human liver microsomes 0.1 mg/mL; read-out: CYP Inhibition (2D6). The method, then: as §1

For the next series, the target named is T4, cytochrome P450 3A4 (Homo sapiens, UniProt P08684).
T4 construct: human liver microsomes (HLM; 0.1 mg/mL); from tissue; host or cells: human liver microsomes
T4 sequence (P08684 whole entry): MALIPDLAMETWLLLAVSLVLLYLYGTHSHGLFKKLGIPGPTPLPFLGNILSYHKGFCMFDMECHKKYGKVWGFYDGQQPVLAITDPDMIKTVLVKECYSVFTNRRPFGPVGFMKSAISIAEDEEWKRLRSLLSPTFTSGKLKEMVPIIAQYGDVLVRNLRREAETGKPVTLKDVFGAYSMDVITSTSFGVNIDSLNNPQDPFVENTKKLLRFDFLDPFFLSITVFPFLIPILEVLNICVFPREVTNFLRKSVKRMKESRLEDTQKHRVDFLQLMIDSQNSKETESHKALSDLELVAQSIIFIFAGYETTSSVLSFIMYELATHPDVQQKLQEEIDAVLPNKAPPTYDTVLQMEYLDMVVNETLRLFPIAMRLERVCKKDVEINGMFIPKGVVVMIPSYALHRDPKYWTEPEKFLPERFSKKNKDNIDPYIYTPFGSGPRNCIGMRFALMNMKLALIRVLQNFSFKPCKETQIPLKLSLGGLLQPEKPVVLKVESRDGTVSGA
In words: Cytochrome P450 cocktail inhibition assay, 3A4 (midazolam). The class given is in vitro ADME. Conditions: human liver microsomes 0.1 mg/mL; read-out: CYP Inhibition (3A4). The method, then:
as §1

The next series addresses T5, P-gp (Homo sapiens, UniProt P08183).
T5 construct: expressed in transfected cells; host or cells: MDR1-MDCK
The series is described as follows: P-gp efflux in MDR1-MDCK cell monolayers. It is filed as in vitro ADME. Conditions: dog, pH 7.4, MDCK-MDR1, 5 μM. The method, then: MDR1-MDCK cell monolayers were grown to confluence on collagen-coated, microporous membranes in 12-well assay plates. The permeability assay buffer was Hanks' balanced salt solution containing 10 mM HEPES and 15 mM glucose at a pH of 7.4. The buffer in the receiver chamber also contained 1% bovine serum albumin. The dosing solution concentration was 5 μM of test article in the assay buffer. Cell monolayers were dosed on the apical side (A- to -B) or basolateral side (B- to -A) and incubated at 37° C. with 5% CO2 in a humidified incubator. Samples were taken from the donor and receiver chambers at 120 minutes Each determination was performed in duplicate. The flux of lucifer yellow was also measured post-experimentally for each monolayer to ensure no damage was inflicted to the cell monolayers during the flux period. All samples were assayed by LC-MS/MS using electrospray ionization.

The subject of another series is mice. The conditions noted are these: cited from earlier work.

Where two headings read alike, the source gives them in different places.

T5 sequence (P08183 whole entry): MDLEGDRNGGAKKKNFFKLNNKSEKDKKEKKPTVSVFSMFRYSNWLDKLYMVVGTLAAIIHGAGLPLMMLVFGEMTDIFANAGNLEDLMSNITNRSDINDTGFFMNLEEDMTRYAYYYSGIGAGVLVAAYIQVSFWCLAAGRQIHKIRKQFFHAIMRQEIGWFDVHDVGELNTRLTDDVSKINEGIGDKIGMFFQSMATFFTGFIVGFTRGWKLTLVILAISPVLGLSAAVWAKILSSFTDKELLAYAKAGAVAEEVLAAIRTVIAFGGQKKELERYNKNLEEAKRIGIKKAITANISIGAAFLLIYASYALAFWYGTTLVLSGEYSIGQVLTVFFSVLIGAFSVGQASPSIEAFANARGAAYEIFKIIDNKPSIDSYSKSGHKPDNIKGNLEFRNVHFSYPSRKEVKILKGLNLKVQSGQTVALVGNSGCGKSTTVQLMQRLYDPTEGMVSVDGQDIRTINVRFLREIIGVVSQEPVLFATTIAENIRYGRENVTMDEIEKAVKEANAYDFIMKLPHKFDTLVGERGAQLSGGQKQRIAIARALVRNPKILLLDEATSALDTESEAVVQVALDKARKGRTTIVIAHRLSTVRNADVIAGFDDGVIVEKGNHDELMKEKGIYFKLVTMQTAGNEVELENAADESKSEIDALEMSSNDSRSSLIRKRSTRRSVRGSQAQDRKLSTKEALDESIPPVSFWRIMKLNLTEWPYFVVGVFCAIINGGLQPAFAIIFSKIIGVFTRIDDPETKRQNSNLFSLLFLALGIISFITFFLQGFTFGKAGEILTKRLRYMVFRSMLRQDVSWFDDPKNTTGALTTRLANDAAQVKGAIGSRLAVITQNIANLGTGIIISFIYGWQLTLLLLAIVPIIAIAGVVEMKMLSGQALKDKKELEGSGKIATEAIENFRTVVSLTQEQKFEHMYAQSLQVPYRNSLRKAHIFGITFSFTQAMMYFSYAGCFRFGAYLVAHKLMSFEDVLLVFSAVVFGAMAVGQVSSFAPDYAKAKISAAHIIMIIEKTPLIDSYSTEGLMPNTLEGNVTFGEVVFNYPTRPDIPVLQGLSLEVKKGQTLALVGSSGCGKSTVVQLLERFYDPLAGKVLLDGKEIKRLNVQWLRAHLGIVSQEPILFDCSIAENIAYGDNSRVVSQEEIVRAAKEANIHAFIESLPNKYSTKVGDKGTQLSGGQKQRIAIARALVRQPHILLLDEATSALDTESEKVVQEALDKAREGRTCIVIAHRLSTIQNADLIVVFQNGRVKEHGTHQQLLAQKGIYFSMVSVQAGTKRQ
T3 sequence (P10635 whole entry): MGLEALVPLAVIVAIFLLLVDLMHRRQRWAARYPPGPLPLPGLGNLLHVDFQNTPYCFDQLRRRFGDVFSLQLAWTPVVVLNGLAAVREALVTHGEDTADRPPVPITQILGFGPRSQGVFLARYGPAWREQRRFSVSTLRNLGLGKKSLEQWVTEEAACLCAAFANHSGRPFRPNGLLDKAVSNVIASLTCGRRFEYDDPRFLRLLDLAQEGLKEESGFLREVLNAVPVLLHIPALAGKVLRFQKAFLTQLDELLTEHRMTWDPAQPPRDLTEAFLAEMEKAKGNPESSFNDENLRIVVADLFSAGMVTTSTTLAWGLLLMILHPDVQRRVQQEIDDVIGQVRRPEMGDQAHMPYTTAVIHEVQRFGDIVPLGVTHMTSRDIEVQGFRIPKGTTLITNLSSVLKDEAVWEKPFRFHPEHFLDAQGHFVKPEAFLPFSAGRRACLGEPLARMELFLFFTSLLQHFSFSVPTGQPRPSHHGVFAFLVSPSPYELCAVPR

As for `Fc1ccc(Cl)c(-c2ccc(N[C@H]3C[C@@H]4CN(Cc5ccccn5)C[C@@H]4C3)nn2)c1` [reference compound], the IC50 was above 30 µM on cytochrome P450 1A2, 10.3 µM at cytochrome P450 2C9, above 30 µM on cytochrome P450 2D6 and 21.7 µM on cytochrome P450 3A4. The efflux ratio at 120 min, 5 μM at P-gp was determined as 12.3.

For `CN1[C@@H]2C[C@@H](OC(=O)[C@H](CO)c3ccccc3)C[C@H]1[C@@H]1O[C@@H]12` [scopolamine], the figures for the “effect on catalepsy induced by haloperidol” value in the series with mice (M4 KO mice) and in the series with mice (WT mice) were “ineffective” and “completely reversed”, respectively.

As to `Fc1ccc(Cl)c(-c2ccc(N[C@H]3C[C@@H]4CN(CC5CCOCC5)C[C@@H]4C3)nn2)c1` [reference compound], the IC50 at cytochrome P450 1A2 is 1.1 µM; on cytochrome P450 2C9, 0.15 µM; on cytochrome P450 2D6, 5.3 µM; on cytochrome P450 3A4, 0.97 µM. For the same molecule, at P-gp, the efflux ratio at 120 min, 5 μM turned out to be 14.
